# Laboratory results taken from patent US8685970B2, “Quinolines and related analogs as sirtuin modulators” (GlaxoSmithKline, LLC, priority 2008, dated 2014).
# Molecular target: T1, SIRT1 (Homo sapiens, UniProt Q96EB6)
# T1 sequence (Q96EB6 1-747): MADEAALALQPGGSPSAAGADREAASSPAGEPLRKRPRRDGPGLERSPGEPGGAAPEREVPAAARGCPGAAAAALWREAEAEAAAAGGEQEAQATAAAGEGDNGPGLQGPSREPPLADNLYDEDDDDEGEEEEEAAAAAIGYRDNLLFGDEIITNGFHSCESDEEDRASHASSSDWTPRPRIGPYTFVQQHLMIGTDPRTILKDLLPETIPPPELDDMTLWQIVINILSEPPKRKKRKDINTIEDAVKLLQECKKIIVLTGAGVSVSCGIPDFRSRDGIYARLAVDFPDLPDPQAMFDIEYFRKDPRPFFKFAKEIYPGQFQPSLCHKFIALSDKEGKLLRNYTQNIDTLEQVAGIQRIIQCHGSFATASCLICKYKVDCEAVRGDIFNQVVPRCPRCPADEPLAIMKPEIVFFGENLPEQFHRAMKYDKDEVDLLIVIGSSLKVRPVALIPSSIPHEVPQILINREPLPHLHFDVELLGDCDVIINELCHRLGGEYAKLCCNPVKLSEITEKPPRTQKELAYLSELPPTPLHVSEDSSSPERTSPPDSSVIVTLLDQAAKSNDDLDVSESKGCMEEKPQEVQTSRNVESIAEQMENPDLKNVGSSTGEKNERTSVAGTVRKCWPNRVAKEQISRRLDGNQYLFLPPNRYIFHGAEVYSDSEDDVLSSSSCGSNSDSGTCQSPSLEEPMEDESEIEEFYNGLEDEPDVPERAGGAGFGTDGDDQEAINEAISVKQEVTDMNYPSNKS
# Test: Mass spectrometry based SIRT1 deacetylation assay (activation)
# Assay type: biochemical
# Conditions: 10 nM SIRT1, 0.5 μM peptide substrate, 120 μM βNAD+, 25 min at 25° C.
# In short: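 Activation reported as EC1.5, the compound concentration producing 150% of DMSO-control deacetylation, plus maximum fold activation. Readout is mass-spectrometric ratio of deacetylated to acetylated p53-based peptide (0.5 μM) after 25 min, 25 °C, with 120 μM βNAD+ and 10 nM His-tagged human SIRT1, pH 8.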
SMILES,% Fold Act. (percent maximum fold activation),EC1.5 (concentration of test compound that results in 150% activation of SIRT1)
O=C(Nc1nc(CN2CCOCC2)cs1)c1cccc2ccc(-c3cccc(OC(F)(F)F)c3)nc12 [Compound 178],A (Fold activation >200%),A (EC1.5<1.0 uM)
O=C(Nc1ncnc2ccc(-c3cccc(OC(F)(F)F)c3)nc12)c1cscn1 [Compound 301],A (Fold activation >200%),A (EC1.5<1.0 uM)
Cc1ccc(-c2ccc3cccc(NC(=O)c4cscn4)c3n2)cc1F [Compound 213],B (Fold Activation <200%),A (EC1.5<1.0 uM)
O=C(Nc1cccc2ccc(-c3cccc(CN4CCOCC4)c3)nc12)c1cscn1 [Compound 120],A (Fold activation >200%),A (EC1.5<1.0 uM)
Cc1csc(NC(=O)c2cccc3cnc(-c4cccc(N5CCOCC5)c4)nc23)n1 [Compound 313],A (Fold activation >200%),A (EC1.5<1.0 uM)
O=C(Nc1ncnc2ccc(-c3cccc(OC(F)(F)F)c3)nc12)c1ccc(CN2CCCC2)cc1 [Compound 232],A (Fold activation >200%),B (EC1.5 1-25 uM)
O=C(Nc1cccc2ccc(-c3cncc(F)c3)nc12)c1cscn1 [Compound 199],–,C (EC1.5>25 uM)
FC(F)(F)c1cccc(-c2ccc3cccc(NCC4CCCC4)c3n2)c1 [Compound 138],–,C (EC1.5>25 uM)
O=C(NC1CCCC1)c1cccc2ccc(-c3cccc(OC4CCNCC4)c3)nc12 [Compound 94],A (Fold activation >200%),B (EC1.5 1-25 uM)
O=C(Nc1cccc2ccc(-c3ccc(F)nc3)nc12)c1cscn1 [Compound 176],A (Fold activation >200%),A (EC1.5<1.0 uM)
Cc1nnc(NC(=O)c2cccc3ccc(-c4cccnc4)nc23)s1 [Compound 235],–,C (EC1.5>25 uM)
O=C(Nc1cccc2ccc(-c3cccc(CN4CCCC4)c3)nc12)c1cscn1 [Compound 119],A (Fold activation >200%),A (EC1.5<1.0 uM)
O=C(Nc1ccc(Cl)cn1)c1cccc2ccc(-c3cccc(N4CCOCC4)c3)nc12 [Compound 278],A (Fold activation >200%),A (EC1.5<1.0 uM)
Cc1cc(C)nc(NC(=O)c2cccc3ccc(-c4cccnc4)nc23)c1 [Compound 248],A (Fold activation >200%),A (EC1.5<1.0 uM)
Cc1cncc(-c2ccc3cccc(C(=O)Nc4cccc(CN5CCOCC5)c4)c3n2)c1 [Compound 243],A (Fold activation >200%),A (EC1.5<1.0 uM)
c1cncc(CNc2cccc3ccc(-c4ccc5c(c4)OCO5)nc23)c1 [Compound 164],–,C (EC1.5>25 uM)
CS(=O)(=O)c1cccc(-c2ccc3cccc(NC(=O)c4cscn4)c3n2)c1 [Compound 81],A (Fold activation >200%),A (EC1.5<1.0 uM)
O=C(Nc1cccnc1)c1cccc2ncc(-c3ccccc3)nc12 [Compound 117],B (Fold Activation <200%),B (EC1.5 1-25 uM)
Cc1cc(-c2ccc3cccc(NC(=O)c4cscn4)c3n2)ccn1 [Compound 197],A (Fold activation >200%),A (EC1.5<1.0 uM)
O=S(=O)(Nc1cccc2ccc(-c3cccc(OC(F)(F)F)c3)nc12)N1CCCC1 [Compound 112],–,C (EC1.5>25 uM)

# Next, values leading:
% Fold Act. (percent maximum fold activation),EC1.5 (concentration of test compound that results in 150% activation of SIRT1),SMILES
B (Fold Activation <200%),A (EC1.5<1.0 uM),Cc1nnc(NC(=O)c2cccc3ccc(-c4cccc(C(F)(F)F)c4)nc23)s1 [Compound 275]
–,C (EC1.5>25 uM),O=C(Nc1cccc2ccc(-c3ccccc3)nc12)c1cccc(OC(F)(F)F)c1 [Compound 6]
A (Fold activation >200%),B (EC1.5 1-25 uM),Cc1noc(NC(=O)c2cccc3ccc(-c4cccc(C(F)(F)F)c4)nc23)c1C [Compound 82]
B (Fold Activation <200%),B (EC1.5 1-25 uM),O=C(Nc1ccncn1)c1cccc2cnc(-c3cccc(C(F)(F)F)c3)nc12 [Compound 271]
A (Fold activation >200%),A (EC1.5<1.0 uM),O=C(Nc1cccnc1)Nc1cccc2ccc(-c3cccc(OC(F)(F)F)c3)nc12 [Compound 47]
B (Fold Activation <200%),A (EC1.5<1.0 uM),O=C(Nc1cccc2ccc(-c3cccc(OC(F)(F)F)c3)nc12)c1cnccn1 [Compound 8]
A (Fold activation >200%),C (EC1.5>25 uM),O=C(NCc1cccnc1)c1cccc2ccc(-c3cccc(C(F)(F)F)c3)nc12 [Compound 36]
A (Fold activation >200%),A (EC1.5<1.0 uM),O=C(Nc1cccnn1)c1cccc2ccc(-c3cccc(C(F)(F)F)c3)nc12 [Compound 100]
A (Fold activation >200%),A (EC1.5<1.0 uM),O=C(Nc1cnccn1)c1cccc2ccc(-c3cccc(OC(F)(F)F)c3)nc12 [Compound 17]
A (Fold activation >200%),A (EC1.5<1.0 uM),O=C(Nc1ccc(OCC(O)CO)cc1)c1cccc2ccc(-c3cccc(C(F)(F)F)c3)nc12 (stereo not shown) [Compound 149]
A (Fold activation >200%),A (EC1.5<1.0 uM),O=C(Nc1nc(CN2CCCC2)cs1)c1cccc2ccc(-c3cccc(C(F)(F)F)c3)nc12 [Compound 147]
A (Fold activation >200%),A (EC1.5<1.0 uM),O=C(Nc1ccnc(N2CCCC2)c1)c1cccc2ccc(-c3cccc(C(F)(F)F)c3)nc12 [Compound 322]
A (Fold activation >200%),A (EC1.5<1.0 uM),O=C(Nc1cccc2ccc(-c3cccc(C(F)(F)F)c3)nc12)c1cscn1 [Compound 5]
B (Fold Activation <200%),C (EC1.5>25 uM),O=C(N[C@H]1CCNC1)c1cccc2ccc(-c3cccc(C(F)(F)F)c3)nc12 [Compound 72]
A (Fold activation >200%),A (EC1.5<1.0 uM),O=C(Nc1cccc(CN2CCOCC2)c1)c1cccc2ccc(-c3cccc(C(F)F)c3)nc12 [Compound 286]
A (Fold activation >200%),A (EC1.5<1.0 uM),O=C(Nc1ccc(CN2CCOCC2)nc1)c1cccc2ccc(-c3cccc(C(F)F)c3)nc12 [Compound 289]
B (Fold Activation <200%),A (EC1.5<1.0 uM),O=C(Nc1ccncn1)c1cccc2ncc(-c3cccc(C(F)(F)F)c3)nc12 [Compound 130]
–,C (EC1.5>25 uM),O=C(Nc1ccccn1)c1cccc2cnc(-c3cccc(C(F)(F)F)c3)nc12 [Compound 283]
A (Fold activation >200%),A (EC1.5<1.0 uM),O=C(Nc1ccccn1)c1cccc2ccc(-c3cccc(OC(F)(F)F)c3)nc12 [Compound 24]
A (Fold activation >200%),B (EC1.5 1-25 uM),Cc1cc(NC(=O)c2cccc3ccc(-c4cccc(C(F)(F)F)c4)nc23)n(C)n1 [Compound 51]
